Target: T1, soluble guanylate cyclase (sGC) (Bos taurus, UniProt P16068)
T1 construct: The sGC which was employed had been isolated from bovine lung; from tissue; host or cells: bovine lung
T1 sequence (P16068 1-619): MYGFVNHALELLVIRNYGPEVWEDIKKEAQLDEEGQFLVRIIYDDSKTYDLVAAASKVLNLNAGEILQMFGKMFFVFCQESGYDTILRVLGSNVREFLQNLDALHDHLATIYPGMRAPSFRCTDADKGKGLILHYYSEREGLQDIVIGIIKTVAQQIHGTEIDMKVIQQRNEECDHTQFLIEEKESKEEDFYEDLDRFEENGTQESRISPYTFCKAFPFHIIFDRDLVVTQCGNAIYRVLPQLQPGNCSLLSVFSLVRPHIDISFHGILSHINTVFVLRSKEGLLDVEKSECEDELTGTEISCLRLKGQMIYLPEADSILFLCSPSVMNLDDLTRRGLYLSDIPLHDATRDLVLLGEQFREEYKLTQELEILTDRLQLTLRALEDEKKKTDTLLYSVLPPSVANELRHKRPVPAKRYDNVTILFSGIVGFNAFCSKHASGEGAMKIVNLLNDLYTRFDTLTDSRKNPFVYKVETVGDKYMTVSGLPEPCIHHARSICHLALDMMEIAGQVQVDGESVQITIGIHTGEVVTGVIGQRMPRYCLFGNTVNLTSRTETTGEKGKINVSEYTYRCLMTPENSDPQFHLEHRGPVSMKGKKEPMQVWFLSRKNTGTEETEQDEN
T1 sequence (P19687 1-691 partner): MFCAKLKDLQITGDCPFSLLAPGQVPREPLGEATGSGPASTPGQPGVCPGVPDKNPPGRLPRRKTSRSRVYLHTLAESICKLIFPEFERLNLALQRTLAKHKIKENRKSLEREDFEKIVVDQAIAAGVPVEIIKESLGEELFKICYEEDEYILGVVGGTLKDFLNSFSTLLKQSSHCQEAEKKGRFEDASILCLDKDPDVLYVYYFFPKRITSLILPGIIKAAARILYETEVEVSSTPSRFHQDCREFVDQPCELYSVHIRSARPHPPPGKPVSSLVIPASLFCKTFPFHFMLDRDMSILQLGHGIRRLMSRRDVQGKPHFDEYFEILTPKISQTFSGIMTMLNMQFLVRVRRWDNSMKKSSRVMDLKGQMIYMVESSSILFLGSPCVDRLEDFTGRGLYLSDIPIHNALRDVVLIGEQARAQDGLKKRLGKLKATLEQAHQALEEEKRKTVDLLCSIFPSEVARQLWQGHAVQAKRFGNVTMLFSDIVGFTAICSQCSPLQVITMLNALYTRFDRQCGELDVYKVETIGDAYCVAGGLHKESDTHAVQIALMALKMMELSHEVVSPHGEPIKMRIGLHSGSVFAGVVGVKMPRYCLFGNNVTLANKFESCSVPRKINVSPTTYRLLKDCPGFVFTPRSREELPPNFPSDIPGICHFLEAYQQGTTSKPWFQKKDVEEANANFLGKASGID
Assay: Activation of the soluble guanylate cyclase (cGMP enzyme immunoassay)
Assay type: biochemical, bovine
Details: n-fold stimulation of basal enzyme activity
Method: The activation of the soluble guanylate cyclase (sGC) which catalyzes the conversion of guanosine triphosphate (GTP) into cyclic guanosine monophosphate (cGMP) and pyrophosphate, by the compounds according to the invention was quantified with the aid of an enzyme immunoassay (EIA) from Amersham. For this purpose the substances to be tested were initially incubated with sGC in microtiter plates, and the amount of the cGMP formed was then determined.
The sGC which was employed had been isolated from bovine lung (see Methods in Enzymology, Volume 195, p. 377). The test solutions (100 μl per well) contained 50 mM triethanolamine (TEA) buffer (pH 7.5), 3 mM MgCl2, 3 mM reduced glutathione (GSH), 0.1 mM GTP, 1 mM 3-isobutyl-1-methylxanthine (IBMX), suitably diluted enzyme solution and the substance to be tested or, in the control experiments, the solvent. The substances to be tested were dissolved in dimethyl sulfoxide (DMSO) and the solution was diluted with DMSO/water, so that the final concentration (c) of the substance to be tested in the test solution had the value indicated in the table. The DMSO concentration in the test solution was 5% (v/v). The reaction was initiated by addition of the sGC. The reaction mixture was incubated at 37° C. for 15 to 20 minutes and then stopped by ice-cooling and addition of the stop reagent (50 mM EDTA, pH 8.0). An aliquot of 50 μl was taken and used for determining the cGMP content using the acetylation protocol of the Amersham cGMP-EIA kit. The absorption of the samples was measured at 450 nm (reference wavelength 620 nm) in a microtiter plate reader. The cGMP concentration was determined using a standard curve which was obtained under the same test conditions. The activation of sGC by a test substance is given as the n-fold stimulation of the basal enzyme activity which was found in the control experiments (using solvent instead of test substance) (calculated using the formula n-fold stimulation=[cGMP]test substance/[cGMP]control).

Cc1cc(NC(=O)c2cc(Cl)ccc2NS(=O)(=O)c2ccc(Cl)cc2)ccc1S(=O)(=O)N1CCCCC1 [Example 195, 5-Chloro-2-(4-chloro-phenylsulfonylamino)-N-(4-(piperidine-1-sulfonyl)-3-methyl-phenyl)-benzamide]
n-fold stimulation (concentration c 10 μM): 16.2

C[C@@H]1CN(S(=O)(=O)c2ccc(NC(=O)c3cc(Cl)ccc3NS(=O)(=O)c3ccc(Cl)cc3)cc2)C[C@H](C)O1 [Example 66, 5-Chloro-2-(4-chloro-phenylsulfonylamino)-N-(4-(cis-2,6-dimethyl-morpholine-4-sulfonyl)-phenyl)-benzamide]
n-fold stimulation (concentration c 50 μM): 33

Cc1noc(C)c1S(=O)(=O)Nc1ccc(Cl)cc1C(=O)Nc1ccc(S(=O)(=O)N2CC(C)CC(C)C2)cc1 (centres unmarked) [Example 223, 5-Chloro-2-(3,5-dimethyl-isoxazole-4-sulfonylamino)-N-(4-(3,5-dimethylpiperidine-1-sulfonyl)-phenyl)-benzamide]
n-fold stimulation (concentration c 10 μM): 27.1

COCCNS(=O)(=O)c1ccc(NC(=O)c2cc(Cl)ccc2NS(=O)(=O)c2ccc(Cl)cc2)cc1 [Example 77, 5-Chloro-2-(4-chloro-phenylsulfonylamino)-N-(4-(2-methoxy-ethylsulfamoyl)-phenyl)-benzamide]
n-fold stimulation (concentration c 50 μM): 5.9

O=C(Nc1ccc(S(=O)(=O)N2CCOCC2)cc1)c1cc(Cl)ccc1NS(=O)(=O)c1ccc(C(F)(F)F)cc1 [Example 137, 5-Chtoro-N-(4-(morpholine-4-sulfonyl)-phenyl)-2-(4-trifluoromethyl-phenylsulfonylamino)-benzamide]
n-fold stimulation (concentration c 50 μM): 4.6

CCS(=O)(=O)Nc1ccc(Cl)cc1C(=O)Nc1ccc(S(=O)(=O)N2CCOCC2)cc1 [Example 134, 5-Chloro-2-(ethylsulfonylamino)-N-(4-(morpholine-4-sulfonyl)-phenyl)-benzamide]
n-fold stimulation (concentration c 50 μM): 7.2

O=C(Nc1ccc(S(=O)(=O)N2CCOCC2)cc1)c1cc(Cl)ccc1NS(=O)(=O)c1cc(C(F)(F)F)cc(C(F)(F)F)c1 [Example 139, 2-(3,5-Bis-trifluoromethyl-phenylsulfonylamino)-5-chloro-N-(4-(morpholine-4-sulfonyl)-phenyl)-benzamide]
n-fold stimulation (concentration c 50 μM): 21.9

O=C(Nc1ccc(S(=O)(=O)N2CCSCC2)cc1)c1cc(Cl)ccc1NS(=O)(=O)c1ccc(Cl)cc1 [Example 63, 5-Chloro-2-(4-chloro-phenylsulfonylamino)-N-(4-(thiomorpholine-4-sulfonyl)-phenyl)-benzamide]
n-fold stimulation (concentration c 50 μM): 33.9

Cc1noc(C)c1S(=O)(=O)Nc1ccc(Cl)cc1C(=O)Nc1ccc(S(=O)(=O)N(C)Cc2cccnc2)cc1 [Example 209, 5-Chloro-2-(3,5-dimethyl-isoxazde-4-sulfonylamino)-N-(4-(N-methyl-N-(pyridin-3-yl-methyl)-aminosulfonyl)-phenyl)-benzamide]
n-fold stimulation (concentration c 10 μM): 28.5

Cc1nn(C)c(Cl)c1S(=O)(=O)Nc1ccc(Cl)cc1C(=O)Nc1ccc(S(=O)(=O)N2CCOCC2)cc1 [Example 130, 5-Chloro-2-(5-chloro-1,3-dimethyl-pyrazole-4-sulfonyl-amino)-N-(4-(morpholine-4-sulfonyl)-phenyl)-benzamide]
n-fold stimulation (concentration c 50 μM): 35.3

CC1CN(S(=O)(=O)c2ccc(NC(=O)c3cc(Cl)ccc3NS(=O)(=O)c3ccc(Cl)cc3)cc2)CC(C)O1 (centres unmarked) [Example 65, 5-Chloro-2-(4-chloro-phenylsulfonylamino)-N-(4-(2,6-dimethyl-morpholine-4-sulfonyl)-phenyl)-benzamide]
n-fold stimulation (concentration c 50 μM): 24.6

CN1CCN(S(=O)(=O)c2ccc(NC(=O)c3cc(Cl)ccc3NS(=O)(=O)c3ccc(Cl)cc3)cc2)CC1 [Example 64, 5-Chloro-2-(4-chloro-phenylsulfonylamino)-N-(4-(4-methyl-piperazine-1-sulfonyl)-phenyl)-benzamide]
n-fold stimulation (concentration c 50 μM): 23.9

O=C(Nc1ccc(S(=O)(=O)N2CCSCC2)cc1)c1cc(Cl)ccc1NS(=O)(=O)c1ccc(Cl)c(Cl)c1 [Example 70, 5-Chloro-2-(3,4-dichloro-phenylsulfonylamino)-N-(4-(thiomorpholine-4-sulfonyl)-phenyl)-benzamide]
n-fold stimulation (concentration c 50 μM): 25.1

Cc1cc(C)c(S(=O)(=O)Nc2ccc(Cl)cc2C(=O)Nc2ccc(S(=O)(=O)N3CCOCC3)cc2)c(C)c1 [Example 150, 5-Chloro-N-(4-(morpholine-4-sulfonyl)-phenyl)-2-(2,4,6-trimethyl-phenylsulfonylamino)-benzamide]
n-fold stimulation (concentration c 50 μM): 15.3

Cc1cc(NC(=O)c2cc(Cl)ccc2NS(=O)(=O)c2ccc(Cl)cc2)ccc1S(=O)(=O)N1CCOCC1 [Example 192, 5-Chloro-2-(4-chloro-phenylsulfonylamino)-N-(4-(morpholine-4-sulfonyl)-3-methyl-phenyl)-benzamide]
n-fold stimulation (concentration c 10 μM): 26.7

O=C(Nc1ccc(S(=O)(=O)N2CCOCC2)cc1)c1cc(Cl)ccc1NS(=O)(=O)c1ccc(F)cc1 [Example 146, 5-Chloro-2-(4-fluoro-phenylsulfonylamino)-N-(4-(morpholine-4-sulfonyl)-phenyl)-benzamide]
n-fold stimulation (concentration c 50 μM): 10.2

COc1cc(NS(=O)(=O)c2ccc(Cl)cc2)c(C(=O)Nc2ccc(S(=O)(=O)N3CCN(C)CC3)cc2)cc1OC [Example 87, 2-(4-Chloro-phenylsulfonylamino)-4,5-dimethoxy-N-(4-(4-methyl-piperazine-1-sulfonyl)-phenyl)-benzamide]
n-fold stimulation (concentration c 50 μM): 12.5

From patent publication US8541410B2, “Sulfur substituted sulfonylaminocarboxylic acid N-arylamides, their preparation, their use and pharmaceutical preparations comprising them” (Sanofi-aventis Deutschland GmbH, priority 1998, dated 2013)
